Measurements: patent publication US20130053358A1, “TRANSDERMALLY ABSORBABLE DONEPEZIL-CONTAINING PREPARATION” (HISAMITSU PHARMACEUTICAL CO., INC., priority 2010, published 2013)
Structures can show the parent of a compound that is named as a salt.

Tested on: human normal epidermal cells
Experiment: Production of skin irritation mediators in human three-dimensional epidermal culture model (LabCyte EPI-MODEL), ELISA
Format: cell-based
Excerpt: There was used a human three-dimensional epidermal culture model in which human normal epidermal cells were multilayer-cultured (LabCyte EPI-MODEL, Japan Tissue Engineering Co., Ltd.). LabCyte is a cultured skin cultured in a transwell. For the experiment, LabCyte was used with the transwell.
A cholesterol (Wako Pure Chemical Industries, Ltd.) was used as a test article. Donepezil hydrochloride was used as the drug. Olive oil (Wako Pure Chemical Industries, Ltd.) was used as a vehicle.
Tests were conducted by the following group composition. • Drug Alone Group: A group with addition of 4×10^−4 M of donepezil hydrochloride alone dispersed in a vehicle, as a test solution. • Cholesterol Addition Group: A group with addition of 4×10^−4 M of donepezil hydrochloride and 1% by mass of cholesterol which were dispersed in a vehicle, as a test solution.
The test solutions of each group were added to the cells, the culture after being incubated for 48 hours were collected, and the production amounts of skin irritation mediators were measured. PGE2, IL-1α, IL-6 and IL-8 were measured as the skin irritation mediators. The skin irritation mediators were measured by using a commercially available ELISA kit (R&D Systems, Inc.). The relative production amount of the skin irritation mediator in the Cholesterol Addition Group was calculated as below, when the production amount of the skin irritation mediators in Drug Alone Group was set to 100.
Relative production amount=(production amount of the mediator in Cholesterol Addition Group)/(production amount of the mediator in Drug Alone Group)×100

[1] = 4×10^−4 M donepezil hydrochloride + 1% by mass cholesterol in olive oil, 48 hours incubation

Which “relative production amount of skin irritation mediator IL-1α (drug alone group set to 100)” value [1] does the source give for `COc1cc2c(cc1OC)C(=O)C(CC1CCN(Cc3ccccc3)CC1)C2` (centres unmarked) [Donepezil hydrochloride, 2-[(1-benzyl-4-piperidinyl)methyl]-5,6-dimethoxyindane-1-on] here?
The value was 0.

And the “relative production amount of skin irritation mediator IL-6 (drug alone group set to 100)” value [1]?
Its value is 85.

What about the “relative production amount of skin irritation mediator IL-8 (drug alone group set to 100)” value [1] of the same molecule?
Its value is 59.

And the “relative production amount of skin irritation mediator PGE2 (drug alone group set to 100)” value [1]?
The value was 33.

With `CC(C)CCC[C@@H](C)[C@H]1CC[C@H]2[C@@H]3CC=C4C[C@@H](O)CC[C@]4(C)[C@H]3CC[C@]12C` [cholesterol, (3β)-cholest-5-en-3-olcholest-5-en-3β-ol] as the molecule, how does the “effect on production amounts of skin irritation mediators by donepezil hydrochloride” value (1% by mass cholesterol added to 4×10^−4 M donepezil hydrochloride, 48 hours) read?
The value was “effects of decreasing the production amounts of skin irritation mediators”.
